Data: patent publication US20220280614A1 (CASE WESTERN RESERVE UNIVERSITY, priority 2019, published 2022)

Tested on: male Sprague-Dawley rats (ca. 300 g) rendered diabetic by streptozotocin
Test: Biological activity and pharmacodynamics (blood glucose over time) after subcutaneous injection in diabetic rats
Assay type: in vivo, rat
Conditions: premixed clear solution of SCI-A and SCI-B, unbuffered, pH 4.0, FIGS. 8-10
Description: FIG. 7 is a graph showing blood glucose levels over time for diabetic rats (time 0 blood glucose of 375±20 mg/dl) injected subcutaneously with indicated analogue/300 g body weight.
FIG. 8 is a graph showing blood glucose levels over time for diabetic rats (time 0 blood glucose of 350-400 [±20 mg/dl]) injected subcutaneously with 1 unit of the indicated analog/300 g body weight. ( ? ) diluent control; (●) an SCI-A (SEQ ID NO: 5); (●) an example of an SCI-B (SEQ ID NO: 6) as formulated at neutral pH; and (♦) equimolar premixed clear solution of this SCI-A and this specific SCI-B as formulated in soluble form in an unbuffered solution at pH 4.0. Respective doses: 20 μg of each protein per 300 gram rat (singly); 20 μg and 20 μg in the case of the premixed solution to a total [SCI-A+SCI-B] combined dose of 40 μg.
FIG. 9 is a graph showing blood glucose levels over time for diabetic rats (time 0 blood glucose of 400±20 mg/dl) injected subcutaneously with indicated analogue/300 g body weight. […] Respective doses: 0.75 units SCI-A, 0.25 units SCI-B; and premixture of 0.75 units SCI-A and 0.25 units SCI-B.
FIG. 10 is a graph showing blood glucose levels over time for diabetic rats (time 0 blood glucose of 385±20 mg/dl) injected subcutaneously with indicated analogue/300 g body weight. […] Respective doses: 0.75 units SCI-A, 0.25 units SCI-B; and premixture of 0.75 units SCI-A and 0.25 units SCI-B.
Biological activity and pharmacodynamics were tested in male Sprague-Dawley rats (ca. 300 g) rendered diabetic by streptozotocin (FIG. 7).
Each of the three SCI-B analogues contained a six-residue C domain and an A-domain substitution known in the art to enhance stability and receptor-binding affinity (HisA8). The first SCI-B (SEQ ID NO: 6; FIG. 8) contained C domain sequence EEGPRR (positions 31-36). This analogue also contained insulin-moiety substitutions GluA14 and GluB29. The second example of an SCI-B (SEQ ID NO: 7; FIG. 9) contained C domain sequence EAAAAA (positions 31-36) and insulin-moiety substitutions GluA14, AspB28 and ProB29. […]

| Substance | effect of premixed SCI-A (SEQ ID NO: 5) on the rapid initial phase of insulin action of the SCI-B component |
| --- | --- |
| SEQ ID NO: 7: single-chain insulin analogue SCI-B, C domain EAAAAA, substitutions GluA14, AspB28 and ProB29 (FVNQHLCGSHLVEALYLVCGERGFFYTDPTEAAAAAGIVEQCCTSICSLEQLENYCN) | did not blunt or prevent the premixed SCI-B component from directing a rapid initial phase of insulin action |
| SEQ ID NO: 8: single-chain insulin analogue SCI-B, C domain EAAARA, substitutions GluA14, AspB28 and ProB29 (FVNQHLCGSHLVEALYLVCGERGFFYTDPTEAAARAGIVEQCCTSICSLEQLENYCN) | did not blunt or prevent the premixed SCI-B component from directing a rapid initial phase of insulin action |
| SEQ ID NO: 6: single-chain insulin analogue SCI-B, C domain EEGPRR, substitutions GluA14 and GluB29; rapid-acting component (FVNQHLCGSHLVEALYLVCGERGFFYTPETEEGPRRGIVEQCCTSICSLEQLENYCN) | did not blunt or prevent the premixed SCI-B component from directing a rapid initial phase of insulin action |
